Converted amounts (≈) assume the structure as drawn. Values belong to the compound of their own block, whether it stands above or below them.
What was measured:
Assay in all cases: ≥ marks a high value that may be exact or a test limit, other limits are often not marked, values filed in µg/mL are converted to µM
[1] = tested on: Bacillus subtilis NBRC 3513
[2] = tested on: Staphylococcus aureus NBRC 12732
[3] = tested on: Bacillus megaterium ATCC 19213
[4] = tested on: Staphylococcus epidermidis NBRC 12933
[5] = tested on: Enterococcus faecalis IP103214
[6] = tested on: Trichophyton simii J43 IP903-65
[7] = tested on: Aeromonas caviae IP67-16T
[8] = tested on: Nocardia brasiliensis IP16-80
[9] = tested on: Trichophyton mentagrophytes IP877-71
[10] = tested on: Acinetobacter baumannii
[11] = tested on: Microsporum canis IP1194
[12] = tested on: Candida albicans IP886-65
[13] = tested on: Staphylococcus aureus IP76-25
[14] = tested on: Trichophyton rubrum IP2043-92
[15] = tested on: Cryptococcus neoformans IP960-67
[16] = tested on: Escherichia coli IP76-24
[17] = tested on: Aspergillus fumigatus IP1025-70
[18] = tested on: Candida albicans IP884-65
[19] = tested on: Aspergillus niger IP218-53
[20] = tested on: Trichophyton simii IP1063-74
[21] = tested on: Saccharomyces cerevisiae IP118079
[22] = tested on: Cryptococcus neoformans IP962-67
[23] = tested on: Bacillus subtilis KCTC 1021
[24] = tested on: Salmonella enterica subsp. enterica serovar Typhimurium ATCC 14028
[25] = tested on: Saccharomyces cerevisiae
[26] = tested on: Candida albicans
[27] = tested on: Pseudomonas aeruginosa ATCC 9027
[28] = tested on: Escherichia coli
[29] = tested on: Proteus mirabilis ATCC 25933
[30] = tested on: Klebsiella pneumoniae ATCC 10031
[31] = tested on: Pseudomonas putida
[32] = tested on: Shigella dysenteriae ATCC 9752
[33] = tested on: Staphylococcus epidermidis ATCC 12228
[34] = tested on: Serratia marcescens
[35] = tested on: Micrococcus luteus ATCC 4698
[36] = tested on: Escherichia coli ATCC 25922
[37] = tested on: Staphylococcus aureus ATCC 25929
[38] = tested on: Staphylococcus aureus USA 300
[39] = tested on: Staphylococcus epidermidis ATCC 35984

SMILES: CC[C@H](C)[C@H](NC(=O)[C@H](C)N)C(=O)N[C@@H](Cc1ccccc1)C(=O)N[C@H](C(=O)N[C@@H](Cc1ccccc1)C(=O)N[C@H](C(=O)N[C@@H](CCCN=C(N)N)C(=O)N[C@@H](Cc1c[nH]c2ccccc12)C(=O)N[C@@H](CC(C)C)C(=O)N[C@@H](CC(C)C)C(=O)N[C@@H](CCCCN)C(=O)O)[C@@H](C)CC)[C@@H](C)CC [AIFIFIRWLLK]
MIC [1]: ≥ 32 µM
MIC [2]: 16 µM (≈ 22.7 µg/mL)
MIC [3]: 16 µM (≈ 22.7 µg/mL)
MIC [4]: ≥ 32 µM

SMILES: CC[C@H](C)[C@H](NC(=O)CN)C(=O)N[C@@H](CCSC)C(=O)N[C@@H](CO)C(=O)N[C@H](C(=O)N[C@H](C(=O)N[C@@H](CCCCN)C(=O)N[C@@H](CC(=O)O)C(=O)N[C@H](C(=O)N[C@@H](C)C(=O)N[C@@H](CCCCN)C(=O)N[C@@H](CC(N)=O)C(=O)N[C@@H](C)C(=O)N[C@@H](C)C(=O)N[C@@H](CCCCN)C(=O)N[C@@H](CCC(=O)O)C(=O)N[C@@H](C)C(=O)N[C@@H](C)C(=O)N[C@@H](CCCCN)C(=O)NCC(=O)N[C@@H](C)C(=O)N[C@@H](CC(C)C)C(=O)N[C@@H](CO)C(=O)N[C@H](C(=O)N[C@@H](CC(C)C)C(=O)N[C@@H](CO)C(=O)N[C@H]1CSSC[C@@H](C(=O)O)NC(=O)[C@H]([C@@H](C)O)NC(=O)[C@H](CCCCN)NC(=O)[C@H](C)NC(=O)[C@H](CC(C)C)NC(=O)[C@H](CCCCN)NC1=O)[C@@H](C)O)C(C)C)C(C)C)[C@@H](C)CC [GIMSIVKDVAKNAAKEAAKGALSTLSCKLAKTC]
MIC [23]: 3.01 µM (≈ 9.99 µg/mL)
MIC [24]: 45.2 µM (≈ 150 µg/mL)
MIC [25]: ≥ 45.2 µM
MIC [26]: 45.2 µM (≈ 150 µg/mL)
MIC [27]: 15.1 µM (≈ 50 µg/mL)
MIC [28]: 22.6 µM (≈ 75 µg/mL)
MIC [29]: ≥ 60.2 µM
MIC [30]: 7.53 µM (≈ 25 µg/mL)
MIC [31]: 15.1 µM (≈ 50 µg/mL)
MIC [32]: 7.53 µM (≈ 25 µg/mL)
MIC [33]: 3.01 µM (≈ 9.99 µg/mL)
MIC [34]: ≥ 60.2 µM
MIC [35]: 0.753 µM (≈ 2.5 µg/mL)

Continued, values first:

MIC [5]: 20 µM (≈ 55.6 µg/mL)
MIC [6]: 20 µM (≈ 55.6 µg/mL)
MIC [7]: 0.5 µM (≈ 1.39 µg/mL)
MIC [8]: 10 µM (≈ 27.8 µg/mL)
MIC [9]: 20 µM (≈ 55.6 µg/mL)
MIC [10]: 4.5 µM (≈ 12.5 µg/mL)
MIC [11]: 15 µM (≈ 41.7 µg/mL)
MIC [12]: 20 µM (≈ 55.6 µg/mL)
MIC [13]: 10 µM (≈ 27.8 µg/mL)
MIC [14]: ≥ 40 µM
MIC [15]: 2 µM (≈ 5.56 µg/mL)
MIC [16]: 4 µM (≈ 11.1 µg/mL)
MIC [17]: 20 µM (≈ 55.6 µg/mL)
MIC [18]: 20 µM (≈ 55.6 µg/mL)
MIC [19]: 30 µM (≈ 83.4 µg/mL)
MIC [20]: 30 µM (≈ 83.4 µg/mL)
MIC [21]: 20 µM (≈ 55.6 µg/mL)
MIC [22]: 1 µM (≈ 2.78 µg/mL)
SMILES: CSCC[C@H](NC(=O)[C@H](Cc1c[nH]c2ccccc12)NC(=O)[C@H](CC(C)C)NC(=O)[C@H](C)N)C(=O)N[C@H](C(=O)N[C@@H](CC(C)C)C(=O)N[C@@H](CC(C)C)C(=O)N[C@@H](CCCCN)C(=O)N[C@@H](CCCCN)C(=O)N[C@H](C(=O)N[C@@H](CC(C)C)C(=O)N[C@@H](CCCCN)C(=O)N[C@@H](C)C(=O)N[C@@H](C)C(=O)N[C@@H](C)C(=O)N[C@@H](CCCCN)C(=O)N[C@@H](C)C(=O)N[C@@H](CC(C)C)C(=O)N[C@@H](CC(N)=O)C(=O)N[C@@H](C)C(=O)N[C@H](C(=O)N[C@@H](CC(C)C)C(=O)N[C@H](C(=O)NCC(=O)N[C@@H](C)C(=O)N[C@@H](CC(N)=O)C(=O)N[C@@H](C)C(=O)O)C(C)C)C(C)C)C(C)C)[C@@H](C)O [ALWMTLLKKVLKAAAKALNAVLVGANA]

MIC [36]: 16 µM (≈ 31.5 µg/mL)
MIC [37]: 8 µM (≈ 15.8 µg/mL)
SMILES: CC(C)C[C@H](NC(=O)[C@H](CC(C)C)NC(=O)[C@@H](NC(=O)[C@@H]1CCCN1C(=O)[C@H](CCCCN)NC(=O)[C@@H](N)[C@@H](C)O)[C@@H](C)O)C(=O)NCC(=O)N[C@@H](CC(C)C)C(=O)N1CCC[C@H]1C(=O)N[C@@H](CC(C)C)C(=O)NCC(=O)N[C@@H](C)C(=O)NCC(=O)N1CCC[C@H]1C(=O)N[C@@H](C)C(=O)N[C@@H](C)C(=O)NCC(=O)N1CCC[C@H]1C(=O)NCC(=O)N[C@@H](CCCCN)C(=O)N[C@@H](CCCN=C(N)N)C(N)=O [TKPTLLGLPLGAGPAAGPGKR]

MIC [38]: ≥ 64 µM
MIC [39]: ≥ 64 µM
SMILES: CC[C@H](C)[C@H](NC(=O)[C@H](C)NC(=O)[C@H](CCCCN)NC(=O)[C@@H](NC(=O)[C@@H](NC(=O)[C@H](CCCCN)NC(=O)[C@@H](NC(=O)[C@@H](NC(=O)[C@@H](NC(=O)CNC(=O)[C@@H](N)C(C)C)[C@@H](C)O)[C@@H](C)CC)[C@@H](C)CC)[C@@H](C)CC)[C@@H](C)CC)C(=O)N[C@H](C(=O)N[C@@H](CC(=O)O)C(=O)N[C@H](C(=O)N[C@@H](Cc1ccccc1)C(=O)N[C@@H](C)C(=O)N[C@@H](CCCCN)C(=O)O)[C@@H](C)CC)[C@@H](C)CC [VGTIIKIIKAIIDIFAK]
